# Source: US9739734B2, “Methods and systems of detecting exocytosis of a target molecule from a population of cells” (THE MARINE […], priority 2013, dated 2017)
# Tested on: pancreatic islet
# Assay: Impedance analysis of a pancreatic islet for insulin exocytosis (single frequency, real-time)
# Assay type: cell-based
# Excerpt: In one embodiment, the method can be used to measure exocytosis of a molecule from an islet of cells. […] In one embodiment, islets can be modeled by 4 passive elements as in the equivalent electric circuit, where RMEM and CMEM represent the sum of the plasma membrane (MEM) resistances (R) and capacitances (C), and RCYT and RINT represent the sum of cytosolic (CYT) and intercellular space (INT) resistances, for all cells in the islet, respectively (FIG. 1B). AC currents applied across a whole islet result in voltage drops across these 4 elements, which are dependent, in part, on the AC frequency and the impedance (Z) of these elements (V=I(ZR(MEM+CYT+INT)+ZC(MEM)). ZC(MEM) and ZR(MEM) are generally sensitive to the level of an applied secretagogue (e.g., glucose), which at stimulatory levels decrease the RMEM, via opening of ion channels, and increase CMEM, via surface area increase reflective of exocytosis. Separation of the measured AC voltage into real (in phase with current) and imaginary (out of phase with current) components for 2 different frequencies can provide direct determination of RMEM, CMEM, RCYT and RINT through generation of 4 separate equations.
# In order to optimize the resolution for monitoring changes in CMEM, an appropriate AC current can be applied at selected frequencies where the measured voltage drop across CMEM is readily detectable (e.g., where the measured voltage drop cross CMEM changes the most) during exocytosis. […] CIP can provide visualization of the changes in plasma membrane capacitance (PMc) over the range of applied frequencies, and thus the frequencies (e.g., 2 frequencies) at which the largest changes (e.g., the two largest changes) in plasma membrane capacitance can be determined as optimal AC frequencies.
# The two optimal AC frequencies are then applied simultaneously to islets, e.g., according to the block diagram in FIG. 2. […] The computer can be used to compute, track and store the values of the passive elements of the equivalent circuit corresponding to the islet being measured. […]
smiles,measurement,setting,value
"[Cl-].[K+] [KCl, potassium chloride]",exocytosis of insulin from cells in the islet (shift in complex impedance plot),"25 mM KCl, before vs after addition, one frequency, FIG. 3",substantial exocytosis of insulin
same,change in whole islet capacitance (imaginary component of impedance),"KCl final concentration 25 mM, single frequency ~1250 Hz, time series, FIG. 4B",immediate change in whole islet capacitance
same,change in whole islet resistance (real component of impedance),"KCl final concentration 25 mM, single frequency, time series, FIG. 4A",not whole islet resistance
